Structures are written as SMILES. Where only a bound is given, the exact number is not on record here.

In experiment [1] the target is T1, wild-type ALK2 (aa172-499) (Homo sapiens (Human), UniProt Q04771). Description: ADPGlo biochemical autophosphorylation assay, ALK2. As to conditions: 15 uM ATP. A general note: In ADP-Glo the light output rises with the ADP produced.
In another experiment the target is ALK3 (aa198-525) (Homo sapiens (Human), UniProt P36894). As to the kind of experiment: ADPGlo biochemical autophosphorylation assay, ALK3. To be noted: 15 uM ATP.
Chain of ALK3 (aa198-525) (P36894 198-525): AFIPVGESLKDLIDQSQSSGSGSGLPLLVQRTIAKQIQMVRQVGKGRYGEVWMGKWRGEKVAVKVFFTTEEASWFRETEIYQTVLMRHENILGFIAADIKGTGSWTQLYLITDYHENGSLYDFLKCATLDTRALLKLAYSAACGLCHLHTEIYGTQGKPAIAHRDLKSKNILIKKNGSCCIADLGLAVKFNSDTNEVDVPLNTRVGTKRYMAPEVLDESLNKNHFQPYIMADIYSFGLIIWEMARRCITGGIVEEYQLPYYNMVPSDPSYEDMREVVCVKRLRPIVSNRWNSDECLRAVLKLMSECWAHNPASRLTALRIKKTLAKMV
In experiment [2] the target is T1, wild-type ALK2 (aa172-499). Description: Caliper biochemical peptide phosphorylation assay, ALK2. As to conditions: Caliper peptide phosphorylation, 15 uM ATP; read-out: ALK2 IC50.
In experiment [3] the target is ALK2 FOP mutant (aa172-499 R206H) (Homo sapiens (Human), UniProt Q04771, R206H). Description: Caliper biochemical peptide phosphorylation assay, ALK2 FOP. As to conditions: Caliper peptide phosphorylation, R206H, 15 uM ATP; read-out: ALK2 FOP EPK IC50.
Chain of ALK2 FOP mutant (aa172-499 R206H) (Q04771 172-499 R206H): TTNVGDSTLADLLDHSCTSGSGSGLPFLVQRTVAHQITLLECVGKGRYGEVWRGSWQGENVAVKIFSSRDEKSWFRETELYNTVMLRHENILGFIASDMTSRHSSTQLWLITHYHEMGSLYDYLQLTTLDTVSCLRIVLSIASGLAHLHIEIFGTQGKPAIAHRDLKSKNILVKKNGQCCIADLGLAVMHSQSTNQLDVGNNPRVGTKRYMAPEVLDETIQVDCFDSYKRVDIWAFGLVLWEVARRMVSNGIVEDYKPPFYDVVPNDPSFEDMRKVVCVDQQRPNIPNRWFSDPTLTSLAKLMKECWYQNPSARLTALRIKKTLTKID
In the next experiment the target is ALK1 (aa166-493) (Homo sapiens (Human), UniProt P37023). Description: Caliper biochemical peptide phosphorylation assay, ALK1. As to conditions: 15 uM ATP.
Chain of ALK1 (aa166-493) (P37023 166-493): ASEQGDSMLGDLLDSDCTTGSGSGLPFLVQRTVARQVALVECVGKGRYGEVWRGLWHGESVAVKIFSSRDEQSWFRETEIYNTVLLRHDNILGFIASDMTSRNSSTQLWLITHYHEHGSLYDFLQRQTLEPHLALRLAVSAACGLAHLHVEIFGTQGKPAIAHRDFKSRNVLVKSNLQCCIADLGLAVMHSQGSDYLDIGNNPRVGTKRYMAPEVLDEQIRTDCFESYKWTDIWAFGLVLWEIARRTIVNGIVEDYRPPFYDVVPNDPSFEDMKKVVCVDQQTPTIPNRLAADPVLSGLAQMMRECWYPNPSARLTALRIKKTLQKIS
The next experiment concerns the target ALK5 (aa162-503) (Homo sapiens (Human), UniProt P36897). As to the kind of experiment: Caliper biochemical peptide phosphorylation assay, ALK5. As to conditions: 15 uM ATP. The text has this: For all biochemical assays, human recombinant proteins were expressed in and purified from baculo virus transfected insect cells. The constructs comprised the GS-domain and kinase domain of wild-type ALK2 (aa172-499), ALK2 FOP mutant (aa172-499 R206H), ALK3 (aa198-525), ALK5 (aa162-503) and ALK6 (aa168-495).
A kinase selectivity panel which measures substrate peptide phosphorylation was set-up for wild-type ALK2 (aa172-499), ALK2 FOP mutant (aa172-499 R206H), ALK1 (aa166-493), ALK5 (aa162-503) and ALK6 (aa168-495). The technology used for the described assay is based on the separation and quantification of substrate and product in an electrical field. In the course of the kinase reaction the peptide substrate is phosphorylated by a kinase. […] Due to this difference in charge the phosphorylated und unphosphorylated peptides migrate with different velocities in an electrical field.
In the applied method, this separation takes place inside a chip that contains a complex capillary system for simultaneous analysis of 12 samples (“LabChip EZ Reader 12-sipper chip”, Caliper Technologies Corp., Mountain View, USA). In order to allow the detection and quantification of the peptides in the capillary system, the peptides carry a fluorescent label (fluorescein). With this label the peptides can be quantified by fluorescence intensity through the instruments laser and detection system (LC3000, Caliper Life Sciences).
The assays were performed in 384-well, low volume microtiter assay plates in a final reaction volume of 9 ul. Dose-response curves were generated by incubating 10 nM of each kinase together with 2 uM of the fluorescently labeled substrate peptide 5-Fluo-Ahx-[…]-T-[…]-amid (10 mM stock solution in DMSO) in 50 mM Hepes pH 7.5, 0.02% Tween 20, 0.02% BSA, 1 mM DTT, 10 uM Na3VO4, 10 mM ß-Glycerolphosphate, 1 mM MgCl2, 12 mM MnCl2 (ALK1 and ALK6 7 mM) and 15 uM ATP for 60 min at 30° C. in the presence or absence of compound diluted in DMSO.
Kinase reactions were terminated by adding 15 ul STOP buffer (100 mM HEPES pH 7.5, 5% DMSO, 0.1% Caliper coating reagent, 10 mM EDTA, and 0.015% Brij35.
Plates with terminated kinase reactions were transferred to the Caliper LC3000 workstation (Caliper Technologies Corp., Mountain View, USA) for reading. The relative amount of phosphorylated peptide r, was calculated using the heights of the substrate peak, s, and the product peak, p:r=p/(p+s).
IC50 values for a given antagonist correspond to the compound concentration needed to inhibit half of the maximum signal of the kinase reaction.

The target in another experiment is ALK6 (aa168-495) (Homo sapiens (Human), UniProt O00238). Description: Caliper biochemical peptide phosphorylation assay, ALK6. As to conditions: 15 uM ATP.
Chain of ALK6 (aa168-495) (O00238 168-495): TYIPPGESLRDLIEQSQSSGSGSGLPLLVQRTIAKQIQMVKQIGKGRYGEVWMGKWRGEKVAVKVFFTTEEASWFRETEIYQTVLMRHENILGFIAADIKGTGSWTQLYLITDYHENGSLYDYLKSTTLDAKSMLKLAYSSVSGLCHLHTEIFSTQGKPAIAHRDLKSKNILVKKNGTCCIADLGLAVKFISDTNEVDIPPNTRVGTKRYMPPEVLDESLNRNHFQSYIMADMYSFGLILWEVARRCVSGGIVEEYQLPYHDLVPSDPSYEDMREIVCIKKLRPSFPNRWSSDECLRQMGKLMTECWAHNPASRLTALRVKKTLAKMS
Experiment [4] deals with HuH7 cells, BMP response element (BRE) luciferase reporter, BMP6 stimulated. As to the kind of experiment: BMP signaling reporter gene assay. The experiment is classed as cell-based. As to conditions: Homo sapiens, Huh-7; BMP6 100 ng/ml; read-out: MSD HuH7 cell BMP reporter IC50. (In general: Reporter assays use an easily measured gene product as a stand-in for the process of interest.)
Procedure: A human liver hepatocellular carcinoma cell line (HuH7) stably transfected with a reporter plasmid consisting of the human BMP response element (BRE) from the Id1 promoter fused to a luciferase reporter gene was generated through lentiviral transduction.
Assays were performed in 384-well flat bottom polystyrene microtiter plates (cell culture treated) with sterile lids. The cells were starved through medium exchange in Blasticidine- and FCS-free medium 16 h before the assay. Prior to the assay, cells were detached from the stock flask using trypsin/EDTA and counted. A cell suspension in the same medium without Blasticidin and FCS was prepared. 2×10^4 cells in a total volume of 40 ul were added to each well of a plate already containing serial dilutions of each compound in DMSO (final DMSO concentration 0.5%). […] Assay plates are incubated for another 5 hours at 37° C., 5% CO2 before luciferase levels are measured.
The amount of expressed luciferase is quantified using the Steady-Glo® Luciferase Assay System (Promega #E2520).

T1 sequence (Q04771 172-499): as the sequence (Q04771 172-499 R206H) above, with H35R counted along it
Chain of ALK5 (aa162-503) (P36897 162-503): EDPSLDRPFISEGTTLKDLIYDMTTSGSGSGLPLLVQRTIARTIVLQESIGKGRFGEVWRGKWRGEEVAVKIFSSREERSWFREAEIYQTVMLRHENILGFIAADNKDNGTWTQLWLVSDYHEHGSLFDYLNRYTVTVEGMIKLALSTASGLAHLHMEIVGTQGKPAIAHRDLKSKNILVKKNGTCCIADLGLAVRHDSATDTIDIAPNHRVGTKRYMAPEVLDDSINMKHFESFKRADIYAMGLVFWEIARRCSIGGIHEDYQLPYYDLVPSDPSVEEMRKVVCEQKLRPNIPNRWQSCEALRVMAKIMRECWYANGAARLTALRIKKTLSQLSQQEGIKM

The IC50 is the concentration at which inhibition is half-maximal. As for `COc1cc(-c2cncc(-c3ccc4c(c3)CC(=O)N4C)c2)cn(C(C)C)c1=O` [Example 2, 5-(1′-Isopropyl-5′-methoxy-6′-oxo-1′,6′-dihydro-[3,3′-bipyridin]-5-yl)-1-methylindolin-2-one], the concentration for half-maximal inhibition (IC50) in experiment [1] stood at 87 nM; against ALK3 (aa198-525), 520 nM; in experiment [2] it was 80 nM; in experiment [3] it was 60 nM; at ALK1 (aa166-493), 410 nM; against ALK5 (aa162-503), 610 nM. In addition, the values for the IC50 (against ALK6 (aa168-495); in experiment [4]) were 940 nM and 50 nM, respectively.
Regarding `CN1C(=O)Cc2cc(-c3cncc(-c4ccc(=O)n(C5CCC5)c4)c3)ccc21` [Example 6, 5-(1′-Cyclobutyl-6′-oxo-1′,6′-dihydro-[3,3′-bipyridin]-5-yl)-1-methylindolin-2-one], the IC50 is 230 nM in experiment [1]; 3600 nM at ALK3 (aa198-525); 150 nM in experiment [2]; 180 nM in experiment [3]; 1700 nM against ALK1 (aa166-493); 5300 nM against ALK5 (aa162-503). The results for the IC50 (at ALK6 (aa168-495); in experiment [4]) were 2900 nM and 660 nM, respectively.
On to `CN1C(=O)Cc2cc(-c3cncc(-c4ccc(=O)n(C5CCCC5)c4)c3)ccc21` [Example 8, 5-(1′-cyclopentyl-6′-oxo-1′,6′-dihydro-[3,3′-bipyridin]-5-yl)-1-methylindolin-2-one], for which the IC50 in experiment [1] was 200 nM; on ALK3 (aa198-525) it was 2400 nM; in experiment [2] it was 170 nM; in experiment [3], 120 nM; at ALK1 (aa166-493) it was 1500 nM; at ALK5 (aa162-503), 9600 nM. For the same compound, the IC50 against ALK6 (aa168-495) was 5300 nM; in experiment [4], 150 nM.
Consider `CN1C(=O)Cc2cc(-c3cncc(-c4ccc(=O)n(CC5CCC5)c4)c3)ccc21` [Example 11, 5-(1′-(cyclobutylmethyl)-6′-oxo-1′,6′-dihydro-[3,3′-bipyridin]-5-yl)-1-methylindolin-2-one], for which the IC50 is 600 nM in experiment [1]; 7900 nM against ALK3 (aa198-525); 490 nM in experiment [2]; 470 nM in experiment [3]; 4700 nM at ALK1 (aa166-493); more than 10000 nM at ALK5 (aa162-503). Also, the 50% inhibitory concentration (IC50) was more than 10000 nM on ALK6 (aa168-495) and 640 nM in experiment [4].
With `CN1C(=O)Cc2cc(-c3cncc(-c4ccc(=O)n(CC(F)(F)F)c4)c3)ccc21` [Example 12, 1-methyl-5-(6′-oxo-1′-(2,2,2-trifluoroethyl)-1′,6′-dihydro-[3,3′-bipyridin]-5-yl)indolin-2-one], the IC50 in experiment [1] is 1500 nM; at ALK3 (aa198-525) it was more than 15100 nM; in experiment [2], 800 nM; in experiment [3] it was 810 nM; at ALK1 (aa166-493) it was 6800 nM; at ALK5 (aa162-503), more than 10000 nM. The results for the IC50 (on ALK6 (aa168-495); in experiment [4]) were 7000 nM and 800 nM, respectively.
Take `CCC(CC)Cn1cc(-c2cncc(-c3ccc4c(c3)CC(=O)N4C)c2)ccc1=O` [Example 13, 5-(1′-(2-ethylbutyl)-6′-oxo-1′,6′-dihydro-[3,3′-bipyridin]-5-yl)-1-methylindolin-2-one]: the IC50 was 680 nM in experiment [1]; 8500 nM on ALK3 (aa198-525); 620 nM in experiment [2]; 570 nM in experiment [3]; 5300 nM at ALK1 (aa166-493); more than 10000 nM against ALK5 (aa162-503). Also, the results for the IC50 (on ALK6 (aa168-495); in experiment [4]) were more than 10000 nM and 790 nM, respectively.
For the compound `COCn1cc(-c2cncc(-c3ccc4c(c3)CC(=O)N4C)c2)ccc1=O` [Example 15, 5-(1′-(methoxymethyl)-6′-oxo-1′,6′-dihydro-[3,3′-bipyridin]-5-yl)-1-methylindolin-2-one], the IC50 was 880 nM in experiment [1]; 9900 nM at ALK3 (aa198-525); 760 nM in experiment [2]; 740 nM in experiment [3]; 5100 nM against ALK1 (aa166-493); more than 10000 nM against ALK5 (aa162-503). For the same compound, the IC50 is more than 10000 nM against ALK6 (aa168-495) and 1500 nM in experiment [4].
As for `CN1C(=O)Cc2cc(-c3cncc(-c4ccc(=O)n(CCC(F)(F)F)c4)c3)ccc21` [Example 16, 1-methyl-5-(6′-oxo-1′-(3,3,3-trifluoropropyl)-1′,6′-dihydro-[3,3′-bipyridin]-5-yl)indolin-2-one], the IC50 is 1100 nM in experiment [1]; 15000 nM at ALK3 (aa198-525); 820 nM in experiment [2]; 830 nM in experiment [3]; 8700 nM against ALK1 (aa166-493); more than 10000 nM on ALK5 (aa162-503). Moreover, the figures for the IC50 (on ALK6 (aa168-495); in experiment [4]) were more than 10000 nM and 1200 nM, respectively.
Turning to `CC(C)CCn1cc(-c2cncc(-c3ccc4c(c3)CC(=O)N4C)c2)ccc1=O` [Example 17, 5-(1′-isopentyl-6′-oxo-1′,6′-dihydro-[3,3′-bipyridin]-5-yl)-1-methylindolin-2-one], the IC50 in experiment [1] is 1100 nM; on ALK3 (aa198-525), more than 15100 nM; in experiment [2], 920 nM; in experiment [3] it was 910 nM; against ALK1 (aa166-493), 7000 nM; against ALK5 (aa162-503), more than 10000 nM. Further, the IC50 was more than 10000 nM at ALK6 (aa168-495) and 1200 nM in experiment [4].
As for `CN1C(=O)Cc2cc(-c3cncc(-c4ccc(=O)n(C5CCCCO5)c4)c3)ccc21` (stereo not shown) [Example 18, 1-methyl-5-(6′-oxo-1′-(tetrahydro-2H-pyran-2-yl)-1′,6′-dihydro-[3,3′-bipyridin]-5-yl)indolin-2-one], the IC50 in experiment [1] is 1000 nM; against ALK3 (aa198-525), more than 15100 nM; in experiment [2] it was 710 nM; in experiment [3] it was 600 nM; against ALK1 (aa166-493), 4700 nM; on ALK5 (aa162-503), more than 10000 nM. Besides, the IC50 against ALK6 (aa168-495) was more than 10000 nM; in experiment [4], 420 nM.
`Cc1cc(-c2cncc(-c3ccc(=O)n(C(C)C)c3)c2)cc2c1N(C)C(=O)C2` [Example 35, 5-(1′-isopropyl-6′-oxo-1′,6′-dihydro-[3,3′-bipyridin]-5-yl)-1,7-dimethylindolin-2-one]: the IC50 in experiment [1] turned out to be 110 nM; in experiment [2], 100 nM; in experiment [3], 91 nM; against ALK1 (aa166-493) it was 630 nM; at ALK5 (aa162-503) it was 5700 nM; in experiment [4], 140 nM.
For the compound `CC(C)n1cc(-c2cncc(-c3ccc4c(c3)CCCC(=O)N4C)c2)ccc1=O` [Example 39, 7-(1′-isopropyl-6′-oxo-1′,6′-dihydro-[3,3′-bipyridin]-5-yl)-1-methyl-4,5-dihydro-1H-benzo[b]azepin-2(3H)-one], the IC50 in experiment [1] was 89 nM; in experiment [2] it was 70 nM; in experiment [3], 60 nM; against ALK1 (aa166-493), 350 nM; on ALK5 (aa162-503), 1400 nM; in experiment [4], 110 nM.
On to `CCN1c2ccc(-c3cncc(-c4ccc(=O)n(C(C)C)c4)c3)cc2CS1(=O)=O` [Example 49, 5′-(1-ethyl-2,2-dioxido-1,3-dihydrobenzo[c]isothiazol-5-yl)-1-isopropyl-[3,3′-bipyridin]-6(1H)-one], for which the IC50 in experiment [1] was determined as 130 nM; against ALK3 (aa198-525) it was 670 nM; in experiment [2] it was 140 nM; in experiment [3], 130 nM; against ALK1 (aa166-493), 570 nM; against ALK5 (aa162-503), 2900 nM. It took 1100 nM to reach half-maximal inhibition against ALK6 (aa168-495) (IC50).
In the case of `CC(C)n1cc(-c2cncc(-c3ccc4c(c3)CS(=O)(=O)N4CC3CCC3)c2)ccc1=O` [Example 51, 5′-(1-(cyclobutylmethyl)-2,2-dioxido-1,3-dihydrobenzo[c]isothiazol-5-yl)-1-isopropyl-[3,3′-bipyridin]-6(1H)-one], the concentration for half-maximal inhibition (IC50) was found to be 160 nM in experiment [1]; 880 nM at ALK3 (aa198-525); 160 nM in experiment [2]; 150 nM in experiment [3]; 780 nM against ALK1 (aa166-493); 2700 nM at ALK5 (aa162-503). Moreover, on ALK6 (aa168-495), the IC50 is 1500 nM.
